From patent US20150352134A1, “COMPOSITION FOR TOPICAL SKIN APPLICATION CONTAINING GINSENOSIDE F2 DERIVED FROM HYDROPONIC GINSENG” (AMOREPACIFIC CORPORATION, priority 2012, published 2015)

How the values were obtained:
[1] = system: Keratinocytes isolated from the human epidermal tissue; experiment: Inhibition of reactive oxygen species formation after UVB (DCF-DA fluorescence); type: cell-based; settings: 1% ginsenoside F2; for ratio to the ROS of the control group, elapsed time after exposure to 30 mJ/cm^2 of UVB 0 hr: 0 hr after 30 mJ/cm^2 UVB; for ratio to the ROS of the control group, elapsed time after exposure to 30 mJ/cm^2 of UVB 2 hrs: 2 hrs after 30 mJ/cm^2 UVB; for ratio to the ROS of the control group, elapsed time after exposure to 30 mJ/cm^2 of UVB 3 hrs: 3 hrs after 30 mJ/cm^2 UVB
Procedure: 5×10^4 Keratinocytes isolated from the human epidermal tissue are put in each well of a 24-well plate and immobilized for 24 hours. After 16 hours, the keratinocytes are treated with 1% ginsenoside F2. For a comparison, the control group is not treated with ginsenoside F2. Each well is removed of the culture medium after 2 hours and then fed with 100 μl of a phosphate-buffered saline (PBS) solution. The keratinocytes are exposed to 30 mJ/cm^2 of ultraviolet radiation under an ultraviolet B (UVB) lamp (Model: F15T8, UV B 15 W, Sankyo Denki Co., Ltd., Japan). Each well is removed of the PBS solution and then supplied with 200 μl of the keratinocyte culture medium. The well is treated with ginsenoside F2 again. Then, the quantity of the reactive oxygen species (ROS) increased by the UV stimulation is determined at defined time intervals. The quantity of the reactive oxygen species (ROS) is determined according to the method that includes measuring the fluorescence of dichlorofluorescin diacetate (DCF-DA) (Tan et al., 1998, J. Cell Biol. Vol. 141, pp 1423-1432).

collagenase (MMP-1) = experiment: Collagenase (MMP-1) expression in human fibroblasts (ELISA); type: cell-based; settings: 10 μg/mL for 24 hours; not treated control = 100
Procedure: The ginsenoside F2 of the present invention is measured in regards to the inhibitory effect on the generation of collagenase in comparison with retinoic acid. […] The human fibroblasts are treated with ginsenoside F2 or retinoic acid at a concentration of 10 μg/mL for 24 hours. Then, the cell culture medium is collected. The production yield of collagenase in the collected cell culture medium is measured using a collagenase measurement instrument commercially available (Catalog #. RPN 2610, USA Amersham Pharma Inc.). Firstly, the collected cell culture medium is put in each well of a 96-well plate uniformly coated with the primary collagenase antibodies and then subjected to antigen-antibody reactions in a thermostat container for 3 hours. After 3 hours, the secondary collagenase antibodies coupled to the chromophore groups are put in each well of the 96-well plate and then allowed to react for more 15 minutes. […] The intensity of yellowness in the reaction mixture is varied depending on the progress of the reaction. The absorbance of the yellow-colored 96-well plate is measured at 405 nm with a spectrophotometer, and the expression level of collagenase is calculated according to the following mathematical formula 2. In this regard, the absorbance of the cell culture medium collected from the group not treated with the composition of the present invention is considered as the absorbance of the control. [formula]

tyrosinase [2] = experiment: Tyrosinase inhibitory effect; type: biochemical, mushrooms; settings: 37° C., absorbance 475 nm
Procedure: The tyrosinase as used herein is an enzyme extracted from mushrooms and purchased from Sigma-Aldrich. Firstly, tyrosine as a substrate is dissolved in distilled water to prepare a 0.3 mg/mL solution, which is added dropwise to a test tube at an amount of 1.0 mL each time. To the solution are added 1.0 mL of a potassium phosphate buffer solution (0.1 mol, pH 6.8) and 0.7 mL of distilled water.
0.2 mL of the sample solution is added to the reactant solution and then allowed to have a reaction in a thermostat container at 37° C. for 10 minutes. In this regards, the control is the reactant solution containing 0.2 mL of a solvent alone in place of each sample solution. The positive control uses ascorbic acid. 0.1 mL of a 2500 unit/mL tyrosinase solution is added to the reactant solution, which is then allowed to have a reaction again in a thermostat container at 37° C. for 10 minutes. The test tube filled with the reactant solution is put into an ice water to cause quenching and thus stop the reaction. The absorbance at 475 nm is measured with a photoelectric spectrophotometer. The tyrosinase inhibitory effect is calculated according to the following mathematical formula 3.

Human keratinocytes = experiment: Promotion of keratinocyte differentiation (cornified envelope, absorbance 340 nm); type: cell-based; settings: ginsenoside 5 ppm, 5 days; low calcium negative control = 100
Procedure: The quantity of CE (Cornified Envelop) generated during differentiation of keratinocytes is measured in terms of absorbance in order to evaluate the ginsenoside F2 in regards to the effect of promoting differentiation of keratinocytes.
Human keratinocytes isolated from the epidermis of a newborn baby and subjected to a primary cultivation are immobilized in the bottom of a cultivation flask, treated with ginsenoside F2 applied to the culture medium to a concentration of 5 ppm, and cultured for 5 days until the keratinocytes grow to take up about 70 to 80% of the bottom area. In this regard, the negative control is the group treated with low calcium (0.03 mM), while the positive control is the group treated with high calcium (1.2 mM). Then, the cultured keratinocytes are harvested, washed with phosphate-buffered saline (PBS), treated with a 10 mM tris-HCl buffer solution (pH 7.4) containing 2% sodium dodecyl sulfate (SDS) and 20 mM dithiothreitol (DTT), and then subjected to sonication, boiling, and centrifugal isolation. The precipitation is suspended in 1 mL of PBS to measure the absorbance at 340 nm. Apart from this process, a part of the solution after sonication is collected and measured in regards to the protein content, which is determined as a reference in evaluating the degree of differentiation.

[3] = system: procollagen type (I) in fibroblasts; experiment: Collagen biosynthesis in fibroblasts (procollagen type (I) ELISA); type: cell-based; settings: 10 ng/ml, 24 hours; non-treated group = 100%
Procedure: The ginsenoside F2 of the present invention is compared with TGF-β in regards to the effect of promoting biosynthesis of collagen. Firstly, fibroblasts are seeded in 24 wells at a rate of 10^5 per well and cultured until the growth reaches 90%. The fibroblasts are cultured in a non-serum culture medium for 24 hours, treated with each 10 ng/ml of ginsenoside F2 or TGF-β dissolved in the non-serum culture medium, and then cultured in a CO2 incubator for 24 hours. The supernatant liquid is collected to determine an increase or decrease of procollagen using a procollagen type (I) ELISA kit. The collagen synthesis ability is denoted with respect to 100% for the non-treated group.

Melanin-a cells = experiment: Melanogenesis promotion in Melanin-a cells; type: cell-based; settings: 3 days, DMSO (0.1%) = 100
Procedure: Melanin-a cells are injected in a 24-well microtiter plate at a rate of 50,000 cells per well with an RPMI medium containing 5% fetal bovine serum, 100 IU penicillin G, and 0.2 μM TPA. Next day, the cells are treated with ginsenoside F2 as a test substance independently at the final concentration of 10 ppm or 50 ppm. The negative control is treated with 0.1% DMSO, and the positive control is treated with 100 μM IBMX. Then, the cells are cultured at 37° C. for 3 days. The wells of the plate are washed with PBS, and 100 μl of 1N NaOH is added to each well to dissolve melanin in the cells. The absorbance of the dissolved melanin is measured at 405 nm with a microplate reader. The effect of the ginsenoside F2 to promote melanogenesis is evaluated in comparison with that of the control groups.

MITF = MITF expression in melanocytes (Western Blot); type: cell-based; settings: 501me1 cell line, IBMX 100 μM, ginsenoside 10 ppm
Procedure: (§1) 501me1 cell line is injected in each well of a 6-well microtiter plate at a rate of 500,000 cells/well. The cell line in each well is treated with 0.1% of DMSO as the negative control group, 100 μM of IBMX as the positive control group, or ginsenoside 10 ppm of F2 as the test group, and cultured at 37° C. for 24 hours, 48 hours, or 72 hours, to obtain proteins. The proteins thus obtained are subjected to Western Blot using MITF and tyrosinase antibodies. Protein extraction and Western Blot are performed using the standard methods known in the art.

tyrosinase [4] = experiment: Tyrosinase expression in melanocytes (Western Blot); type: cell-based; settings: 501me1 cell line, IBMX 100 μM, ginsenoside 10 ppm
Procedure: as §1

Structure (SMILES)	ratio to the ROS of the control group, elapsed time after exposure to 30 mJ/cm^2 of UVB 0 hr [1]	ratio to the ROS of the control group, elapsed time after exposure to 30 mJ/cm^2 of UVB 2 hrs [1]	ratio to the ROS of the control group, elapsed time after exposure to 30 mJ/cm^2 of UVB 3 hrs [1]	Collagenase expression level(%) (collagenase (MMP-1))	Tyrosinase inhibition rate (%) (tyrosinase [2])	Differentiation in keratinocytes (%) (Human keratinocytes)	Collagen synthesis ability (%) [3] [%]	Yield of Melanin (%) (Melanin-a cells; 10 ppm)	Yield of Melanin (%) (Melanin-a cells; 50 ppm)	MITF (Western Blot, in comparison with 100 of the negative control group) (MITF; 24 hrs)	MITF (Western Blot, in comparison with 100 of the negative control group) (MITF; 48 hrs)	MITF (Western Blot, in comparison with 100 of the negative control group) (MITF; 72 hrs)	Tyrosinase (Western Blot, in comparison with 100 of the negative control group) (tyrosinase [4]; 24 hrs)	Tyrosinase (Western Blot, in comparison with 100 of the negative control group) (tyrosinase [4]; 48 hrs)	Tyrosinase (Western Blot, in comparison with 100 of the negative control group) (tyrosinase [4]; 72 hrs)
CC(C)=CCC[C@](C)(O[C@@H]1O[C@H](CO)[C@@H](O)[C@H](O)[C@H]1O)[C@H]1CC[C@]2(C)[C@@H]1[C@H](O)C[C@@H]1[C@@]3(C)CC[C@H](O[C@@H]4O[C@H](CO)[C@@H](O)[C@H](O)[C@H]4O)C(C)(C)[C@@H]3CC[C@]12C [Ginsenoside F2, ginsenoside F2]	100	251	286	73	69	309	191.6	113	129	92	120	162	150	182	211
CC(C)=CCC[C@](C)(O[C@@H]1O[C@H](CO[C@@H]2O[C@H](CO)[C@@H](O)[C@H](O)[C@H]2O)[C@@H](O)[C@H](O)[C@H]1O)[C@H]1CC[C@]2(C)[C@@H]1[C@H](O)C[C@@H]1[C@@]3(C)CC[C@H](O[C@@H]4O[C@H](CO)[C@@H](O)[C@H](O)[C@H]4O[C@@H]4O[C@H](CO)[C@@H](O)[C@H](O)[C@H]4O)C(C)(C)[C@@H]3CC[C@]12C [Ginsenoside Rb1]	100	302	354	74	60	265	188.3	112	120	93	116	144	149	165	189
